Assay results from PubChem BioAssay AID248 (DTP/NCI, 2004).
Several values for one entry are separate records, joined by “and”; a condition that tells them apart may be missing. Equal entries are not always repeated. Inconclusive results and toxic doses are left out. Cut-off read from the data, not from the text of the source: active = T/C of 150% or more; inactive = T/C below 125%.

System: L1210 leukemia ip in BDF1 mice, survival T/C
Test: NCI In Vivo Anticancer Drug Screen. Data for tumor model L1210 Leukemia (intraperitoneal) in B6D2F1 (BDF1) mice
Conditions: endpoint: mean survival time, higher = longer survival
Summary of the method: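 Survival endpoint. Drug-treated group vs vehicle group, expressed as T divided by C. Tumor passaged by transplantation.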

[1] = dose: 5.0 mg/kg/injection, schedule: Q01DX001 (ip), vehicle: saline
[2] = dose: 10.0 mg/kg/injection, schedule: Q01DX001 (ip), vehicle: saline
[3] = dose: 100.0 mg/kg/injection, schedule: Q01DX001 (ip), vehicle: saline
[4] = dose: 200.0 mg/kg/injection, schedule: Q01DX001 (ip), vehicle: saline
[5] = dose: 400.0 mg/kg/injection, schedule: Q01DX001 (ip), vehicle: saline
[6] = dose: 100.0 mg/kg/injection, schedule: Q04DX003 (ip), vehicle: saline with Tween-80

Measured: T/C

C=CC(=O)O
inactive: dose: 0.5 mg/kg/injection, schedule: Q01DX009 (ip), vehicle: saline 101 % of control | dose: 1.0 mg/kg/injection, schedule: Q01DX009 (ip), vehicle: saline 101 % of control | dose: 1.56 mg/kg/injection, schedule: Q01DX009 (ip), vehicle: acetone 104 % of control | dose: 2.0 mg/kg/injection, schedule: Q01DX009 (ip), vehicle: saline 108 % of control | dose: 3.12 mg/kg/injection, schedule: Q01DX009 (ip), vehicle: acetone 102 % of control | dose: 4.0 mg/kg/injection, schedule: Q01DX009 (ip), vehicle: saline 116 % of control | [1] 102 % of control and 93 % of control | dose: 6.25 mg/kg/injection, schedule: Q01DX009 (ip), vehicle: acetone 88 % of control | [2] 108 % of control and 100 % of control | dose: 20.0 mg/kg/injection, schedule: Q01DX001 (ip), vehicle: saline 101 % of control | dose: 25.0 mg/kg/injection, schedule: Q04DX003 (ip), vehicle: Klucel (hydroxypropylcellulose) (HPC) 90 % of control | dose: 50.0 mg/kg/injection, schedule: Q01DX001 (ip), vehicle: carboxymethylcellulose (CMC) 88 % of control and 106 % of control | dose: 50.0 mg/kg/injection, schedule: Q01DX001 (ip), vehicle: saline 95 % of control | dose: 100.0 mg/kg/injection, schedule: Q01DX001 (ip), vehicle: carboxymethylcellulose (CMC) 86 % of control and 95 % of control | [3] 90 % of control and 88 % of control | dose: 100.0 mg/kg/injection, schedule: Q04DX003 (ip), vehicle: Klucel (hydroxypropylcellulose) (HPC) 89 % of control | dose: 200.0 mg/kg/injection, schedule: Q01DX001 (ip), vehicle: carboxymethylcellulose (CMC) 93 % of control and 101 % of control | [4] 93 % of control and 88 % of control | dose: 200.0 mg/kg/injection, schedule: Q04DX003 (ip), vehicle: saline with Tween-80 87 % of control | dose: 400.0 mg/kg/injection, schedule: Q01DX001 (ip), vehicle: carboxymethylcellulose (CMC) 88 % of control and 106 % of control | [5] 101 % of control and 95 % of control and 102 % of control | dose: 320.0 micrograms/kg/injection, schedule: Q01DX009 (ip), vehicle: saline 96 % of control | dose: 480.0 micrograms/kg/injection, schedule: Q01DX009 (ip), vehicle: saline 102 % of control | dose: 730.0 micrograms/kg/injection, schedule: Q01DX009 (ip), vehicle: saline 106 % of control | dose: 1100.0 micrograms/kg/injection, schedule: Q01DX009 (ip), vehicle: saline 107 % of control

Cc1cc(C)c(Br)c(C)c1C
inactive: [3] 104 % of control | [4] 113 % of control | [5] 116 % of control

CCCCCCCCN1CCC(c2cccc(O)c2)C(C(=O)CC)C1 (stereo unspecified)
inactive: dose: 6.0 mg/kg/injection, schedule: Q01DX009 (ip), vehicle: Klucel (hydroxypropylcellulose) (HPC) 94 % of control and 102 % of control | dose: 12.0 mg/kg/injection, schedule: Q01DX009 (ip), vehicle: Klucel (hydroxypropylcellulose) (HPC) 94 % of control | dose: 50.0 mg/kg/injection, schedule: Q01DX009 (ip), vehicle: Klucel (hydroxypropylcellulose) (HPC) 87 % of control

COc1ccccc1C1CCCCCCC1OS(=O)(=O)c1ccc(C)cc1 (stereo unspecified)
inactive: dose: 18.75 mg/kg/injection, schedule: Q01DX009 (ip), vehicle: saline 97 % of control | dose: 37.5 mg/kg/injection, schedule: Q01DX009 (ip), vehicle: saline 95 % of control | dose: 75.0 mg/kg/injection, schedule: Q01DX001 (ip), vehicle: acetone 89 % of control | dose: 75.0 mg/kg/injection, schedule: Q01DX001 (ip), vehicle: saline 90 % of control | dose: 75.0 mg/kg/injection, schedule: Q01DX009 (ip), vehicle: saline 90 % of control | dose: 75.0 mg/kg/injection, schedule: Q04DX003 (ip), vehicle: saline 88 % of control | dose: 112.0 mg/kg/injection, schedule: Q01DX009 (ip), vehicle: saline 103 % of control | dose: 150.0 mg/kg/injection, schedule: Q01DX001 (ip), vehicle: saline 93 % of control | dose: 150.0 mg/kg/injection, schedule: Q04DX003 (ip), vehicle: saline 92 % of control | dose: 170.0 mg/kg/injection, schedule: Q01DX009 (ip), vehicle: saline 96 % of control | dose: 255.0 mg/kg/injection, schedule: Q01DX009 (ip), vehicle: saline 100 % of control | dose: 300.0 mg/kg/injection, schedule: Q01DX001 (ip), vehicle: acetone 89 % of control | dose: 300.0 mg/kg/injection, schedule: Q01DX001 (ip), vehicle: saline 92 % of control

O=C1CCCCC1CO (stereo unspecified)
inactive: dose: 100.0 mg/kg/injection, schedule: Q01DX009 (ip), vehicle: Klucel (hydroxypropylcellulose) (HPC) 96 % of control | dose: 100.0 mg/kg/injection, schedule: Q04DX002 (ip), vehicle: Klucel (hydroxypropylcellulose) (HPC) 96 % of control | dose: 200.0 mg/kg/injection, schedule: Q01DX009 (ip), vehicle: Klucel (hydroxypropylcellulose) (HPC) 100 % of control | dose: 200.0 mg/kg/injection, schedule: Q04DX002 (ip), vehicle: Klucel (hydroxypropylcellulose) (HPC) 100 % of control | dose: 400.0 mg/kg/injection, schedule: Q01DX009 (ip), vehicle: Klucel (hydroxypropylcellulose) (HPC) 89 % of control | dose: 400.0 mg/kg/injection, schedule: Q04DX002 (ip), vehicle: Klucel (hydroxypropylcellulose) (HPC) 86 % of control

S=C(NCc1ccccc1)[S][Sb]([S]C(=S)NCc1ccccc1)[c]1ccccc1
inactive: [1] 88 % of control | [2] 109 % of control

NCC1COc2ccccc2O1 (stereo unspecified)
inactive: dose: 75.0 mg/kg/injection, schedule: Q01DX001 (ip), vehicle: carboxymethylcellulose (CMC) 98 % of control | dose: 150.0 mg/kg/injection, schedule: Q01DX001 (ip), vehicle: carboxymethylcellulose (CMC) 96 % of control | dose: 300.0 mg/kg/injection, schedule: Q01DX001 (ip), vehicle: carboxymethylcellulose (CMC) 96 % of control

COc1ccccc1N1C(=O)CC(Sc2ccccc2N)C1=O (stereo unspecified)
inactive: dose: 100.0 mg/kg/injection, schedule: Q01DX009 (ip), vehicle: saline sonified 95 % of control | dose: 100.0 mg/kg/injection, schedule: Q04DX003 (ip), vehicle: saline sonified 87 % of control | dose: 200.0 mg/kg/injection, schedule: Q01DX009 (ip), vehicle: saline sonified 88 % of control | dose: 200.0 mg/kg/injection, schedule: Q04DX003 (ip), vehicle: saline sonified 94 % of control | dose: 400.0 mg/kg/injection, schedule: Q01DX009 (ip), vehicle: saline sonified 93 % of control | dose: 400.0 mg/kg/injection, schedule: Q04DX003 (ip), vehicle: saline sonified 96 % of control

CCCCCCCNC(=O)Nc1ccc(Cl)c(Cl)c1
inactive: [3] 95 % of control | [4] 90 % of control | [5] 97 % of control

C=C(C)[C@@H]1CC[C@]2(C(=O)OC)CC[C@]3(C)[C@H](CC[C@@H]4[C@@]5(C)CC[C@H](O)C(C)(C)[C@@H]5CC[C@]43C)[C@@H]12
inactive: dose: 100.0 mg/kg/injection, schedule: Q04DX003 (ip), vehicle: alcohol 103 % of control | dose: 200.0 mg/kg/injection, schedule: Q04DX003 (ip), vehicle: alcohol 100 % of control | dose: 400.0 mg/kg/injection, schedule: Q04DX003 (ip), vehicle: alcohol 91 % of control

O=C(/C(=C\c1ccccc1)CBr)c1ccc(Cl)cc1
inactive: [6] 119 % of control

CC(=O)N(C(C)=O)c1ccc(N=Nc2ccccc2C)cc1C
inactive: dose: 50.0 mg/kg/injection, schedule: Q01DX009 (ip), vehicle: saline with Tween-80 94 % of control | dose: 100.0 mg/kg/injection, schedule: Q01DX009 (ip), vehicle: saline with Tween-80 86 % of control | dose: 100.0 mg/kg/injection, schedule: Q04DX003 (ip), vehicle: saline 94 % of control | dose: 200.0 mg/kg/injection, schedule: Q01DX009 (ip), vehicle: saline with Tween-80 106 % of control | dose: 200.0 mg/kg/injection, schedule: Q04DX003 (ip), vehicle: saline 94 % of control | dose: 400.0 mg/kg/injection, schedule: Q04DX003 (ip), vehicle: saline 92 % of control

Cc1c(C)c2c(c(C)c1O)CCC(C)(CCCC(C)CCCC(C)CCCC(C)C)O2 (stereo unspecified)
inactive: dose: 31.2 mg/kg/injection, schedule: Q01DX009 (ip), vehicle: carboxymethylcellulose (CMC) 107 % of control | dose: 62.5 mg/kg/injection, schedule: Q01DX009 (ip), vehicle: carboxymethylcellulose (CMC) 101 % of control | [6] 91 % of control | dose: 125.0 mg/kg/injection, schedule: Q01DX009 (ip), vehicle: carboxymethylcellulose (CMC) 100 % of control | dose: 202.0 mg/kg/injection, schedule: Q04DX003 (ip), vehicle: saline with Tween-80 91 % of control | dose: 250.0 mg/kg/injection, schedule: Q01DX009 (ip), vehicle: carboxymethylcellulose (CMC) 100 % of control | dose: 400.0 mg/kg/injection, schedule: Q04DX003 (ip), vehicle: saline with Tween-80 93 % of control
